Measured values reported in ChEMBL document CHEMBL5727776, “Heteroaromatic carboxamide derivatives as plasma kallikrein inhibitors” (2020).

Biological target: Plasma kallikrein (Homo sapiens, UniProt P03952)
Assay: Measurements were performed in a kinetic interval every 2nd minute for 16 min using a Spectramax M5 (Molecular Devices) with the following settings of the wavelength excitation of 350 nm and wavelength emission of 450 nm.

Plasma kallikrein, sequence (P03952 20-390 limits assumed): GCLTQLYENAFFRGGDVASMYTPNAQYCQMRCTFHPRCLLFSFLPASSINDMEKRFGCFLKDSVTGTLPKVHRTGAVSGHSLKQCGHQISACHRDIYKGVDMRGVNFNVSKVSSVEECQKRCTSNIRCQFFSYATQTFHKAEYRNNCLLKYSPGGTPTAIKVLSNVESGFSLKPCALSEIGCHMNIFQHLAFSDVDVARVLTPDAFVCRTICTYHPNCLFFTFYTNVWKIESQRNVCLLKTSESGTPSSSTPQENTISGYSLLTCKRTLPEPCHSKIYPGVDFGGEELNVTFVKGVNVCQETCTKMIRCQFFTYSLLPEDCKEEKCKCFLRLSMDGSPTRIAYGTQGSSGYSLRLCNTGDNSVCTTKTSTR
Plasma kallikrein, sequence (P03952 391-638 limits assumed): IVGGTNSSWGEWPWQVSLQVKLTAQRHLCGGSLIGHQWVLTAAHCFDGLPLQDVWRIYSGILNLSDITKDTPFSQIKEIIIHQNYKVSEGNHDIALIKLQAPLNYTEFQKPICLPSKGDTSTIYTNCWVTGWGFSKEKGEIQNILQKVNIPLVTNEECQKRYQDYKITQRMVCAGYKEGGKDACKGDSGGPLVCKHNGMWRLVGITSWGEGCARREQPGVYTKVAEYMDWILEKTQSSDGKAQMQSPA

Cc1nc(N2CC3(CC3)C2)ccc1Cn1cc(C(=O)N[C@@H]2CCc3c(C)n[nH]c32)cn1
Ki: 0.4 nM

Cc1nc(N2CC3C(C2)C3(F)F)ccc1Cn1cc(C(=O)N[C@@H]2CCc3c(C)n[nH]c32)c(C)n1 (some centres not stated)
Ki: 0.1 nM
